The results in this text go back to US20060039931A1, “Stable cream preparations of phenyl-pyridone compounds for topical application” (MEPHA AG, priority 2002, published 2006).

This series is described as follows: Experiments on use of pyridone compounds in emulsions. In kind it is physicochemical. The source says:
When an emulsion “breaks”, the oily and aqueous phases separate, leading to unwanted coalescence, i.e. a kind of confluence or coagulation of the constituents. This often results in a change in pH and may even cause the active ingredient to crystallize out. This disadvantageous property of pirfenidone is not discussed in said patents and patent applications and no teaching is offered to remedy the problem. Creams are merely cited as a possible topical form of application.

With `Cc1ccc(=O)n(-c2ccccc2)c1` [pirfenidone, 5-methyl-1-phenyl-2-(1H)-pyridone], the Behaviour in emulsions result is “behave as emulsion breakers”.
